Series [1] can be described thus: Dose-escalating toxicity study. It is filed as in vivo. The note with it: oral or intraperitoneal administration, doses up to 2 g kg^−1.
Series [2] has as its system human monocyte-derived macrophages (hMDMs). The experiment in a line: qRT-PCR / Western blot of activation markers in hMDMs. The format is cell-based.
The test system is the same in series [3]. The description is as above. It is filed as cell-based. The note with it: 3 h. On the procedure: Figure 1 BCAT1 expression and inhibition in human macrophages. […] (b) Chemical structure of ERG240 and leucine. (c) Enzymatic activity of recombinant human BCAT1 and BCAT2 in presence of ERG240. (d) Relative expression of IRG1, HIF1A and IL1B measured by qRT-PCR in control, ERG240-treated (20 mM, 3 h), LPS treated (100 ng ml^−1, 3 h), and LPS+ERG240 treated (LPS, 100 ng ml^−1; ERG240, 20 mM for 3 h) hMDMs. ns, non-significant. All expression values are normalized to those obtained for HPRT gene expression. n=3 healthy donor hMDMs were used in each group. (e) Western blot analysis of IRG1, IL-1β, HIF-1α and beta-actin (ACTB) in control (untreated), ERG240-treated (20 mM, 3 h), LPS treated (100 ng ml^−1, 3 h) and LPS+ERG240 treated (LPS, 100 ng ml^−1; ERG240, 20 mM for 3 h) hMDMs. […]
hMDMs were lysed in Laemmli sample buffer supplemented with protease inhibitors and resolved by SDS-PAGE, transferred into PVDF membranes, and subjected to immunoblotting with the primary antibodies described above and secondary detection antibodies. The probed proteins were detected using SuperSignal West Femto Chemiluminescent Substrate (Thermo Fisher Scientific Inc., Rockford, IL). […] Results were analysed using the comparative Ct method and each sample was normalized to the indicated reference gene, to account for any cDNA loading differences. […]

Setting [4] is: LPS 100 ng/ml + ERG240 20 mM, 3 h, qRT-PCR.

Consider `CC(=O)C(C)CCC(=O)O` (stereo not shown) [ERG240], for which the “adverse effects in dose-escalating toxicity study” value in series [1] is listed as “no major adverse effects”. In series [2] (setting [4]), the NOS2 expression levels result is recorded as “significantly reduced” and the TNF expression levels result is on record as “significantly reduced”. The “IL-1β levels, long-term exposure” value in series [2] (LPS + ERG240 20 mM, 24 h, Western blot) was “reduced IL-1β levels”. The “IRG1 expression in TNF-stimulated human macrophages” value in series [2] (TNF 2 ng/ml, ERG240 20 mM, 8 h) is “comparable inhibitory effect”. The “IRG1 protein levels (Western blot)” value in series [3] (LPS 100 ng ml^−1 + ERG240 20 mM) is given as “reduction in IRG1 levels”. Moreover, in series [3] (LPS-stimulated hMDMs (100 ng ml^−1), ERG240 20 mM), the “IRG1 mRNA levels” value is recorded as “dramatic reduction”.

(Values after publication PMC5510229, “BCAT1 controls metabolic reprogramming in activated human macrophages and is associated with inflammatory diseases” (Nature Communications, 2017).)
